Results from US11046699B2, “Pyrazolo-pyrimidin-amino-cycloalkyl compounds and their therapeutic uses” (RAPT THERAPEUTICS, INC., priority 2018, dated 2021).
Like-named read-outs stand apart in the source and are kept apart here.

Biological target: GCN2 (Homo sapiens, UniProt Q9P2K8)
Experiment: GCN2 enzymatic endpoint assay: phosphorylation of GFP-eIF2α measured by TR-FRET (Lanthascreen)
Assay type: biochemical
Method in brief: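 Endpoint GCN2 reaction with low ATP (2 μM) and 80 nM GFP-eIF2α, room temperature, 90 minutes. Detection mix with EDTA and Tb-labelled antibody; 520 nm/495 nm emission ratio reported.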

[1] = tested as described in Example 77, compound and/or hydrochloride, dihydrochloride or trifluoroacetic acid salt, read-out: IC 50 Activity

Sequence of GCN2 (Q9P2K8 whole entry): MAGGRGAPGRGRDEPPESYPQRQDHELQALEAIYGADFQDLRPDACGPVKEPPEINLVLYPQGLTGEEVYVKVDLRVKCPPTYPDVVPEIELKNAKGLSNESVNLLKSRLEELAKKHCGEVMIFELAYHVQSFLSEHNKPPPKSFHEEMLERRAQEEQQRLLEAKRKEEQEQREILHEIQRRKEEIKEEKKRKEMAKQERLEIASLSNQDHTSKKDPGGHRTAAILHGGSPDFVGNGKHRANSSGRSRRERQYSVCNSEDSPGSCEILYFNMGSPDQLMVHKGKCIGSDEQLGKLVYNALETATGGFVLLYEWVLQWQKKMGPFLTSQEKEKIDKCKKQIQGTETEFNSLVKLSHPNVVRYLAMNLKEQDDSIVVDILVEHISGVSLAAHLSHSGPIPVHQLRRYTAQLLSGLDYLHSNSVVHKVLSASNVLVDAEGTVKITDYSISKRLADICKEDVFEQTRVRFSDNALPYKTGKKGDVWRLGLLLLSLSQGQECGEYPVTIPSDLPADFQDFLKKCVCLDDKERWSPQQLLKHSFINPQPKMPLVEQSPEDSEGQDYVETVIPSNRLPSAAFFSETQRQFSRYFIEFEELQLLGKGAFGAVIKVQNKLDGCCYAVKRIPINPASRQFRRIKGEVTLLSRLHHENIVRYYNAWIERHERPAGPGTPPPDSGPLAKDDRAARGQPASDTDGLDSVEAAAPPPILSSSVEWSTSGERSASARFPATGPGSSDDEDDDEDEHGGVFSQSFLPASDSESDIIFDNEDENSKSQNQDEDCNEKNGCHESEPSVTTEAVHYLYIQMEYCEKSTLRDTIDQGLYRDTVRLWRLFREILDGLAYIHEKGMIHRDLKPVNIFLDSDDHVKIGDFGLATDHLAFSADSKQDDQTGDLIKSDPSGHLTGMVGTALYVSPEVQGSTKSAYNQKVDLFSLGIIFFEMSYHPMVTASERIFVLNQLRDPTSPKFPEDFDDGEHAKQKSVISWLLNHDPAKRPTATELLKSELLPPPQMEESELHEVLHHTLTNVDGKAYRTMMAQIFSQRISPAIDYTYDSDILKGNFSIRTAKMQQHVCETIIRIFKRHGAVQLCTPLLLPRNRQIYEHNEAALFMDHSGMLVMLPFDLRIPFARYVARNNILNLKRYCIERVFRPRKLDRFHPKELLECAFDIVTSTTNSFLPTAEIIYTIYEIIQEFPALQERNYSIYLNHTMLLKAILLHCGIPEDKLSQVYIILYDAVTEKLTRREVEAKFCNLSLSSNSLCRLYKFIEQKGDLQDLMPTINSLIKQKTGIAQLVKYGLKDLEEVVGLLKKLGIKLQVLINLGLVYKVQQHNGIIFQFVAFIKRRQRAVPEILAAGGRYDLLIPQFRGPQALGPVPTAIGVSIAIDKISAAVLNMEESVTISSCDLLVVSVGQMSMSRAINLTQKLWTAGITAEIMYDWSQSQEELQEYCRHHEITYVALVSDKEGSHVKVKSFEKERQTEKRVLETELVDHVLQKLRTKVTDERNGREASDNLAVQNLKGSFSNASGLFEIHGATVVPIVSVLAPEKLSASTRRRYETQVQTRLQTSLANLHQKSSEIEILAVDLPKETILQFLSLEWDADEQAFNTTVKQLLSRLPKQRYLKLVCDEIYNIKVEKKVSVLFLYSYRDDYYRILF

Row | IC50 [1] | IC50 (GCN2 biochemical IC50, 4 nM GCN2, 2 μM ATP, 80 nM GFP-eIF2α, 90 min RT, read-out: GCN2 activity) | SMILES
1 | < 25 nM |  | C[C@@]1(C(=O)O)CC[C@@H](Nc2ncc3c(Br)nn(-c4cc(CCN)c5ncccc5c4)c3n2)C1 [(1R,3R)-3-[[1-[8-(2-aminoethyl)-6-quinolyl]-3-bromo-pyrazolo[3,4-d]pyrimidin-6-yl]amino]-1-methyl-cyclopentanecarboxylic acid]
2 | 25 to 200 nM |  | CNC(=O)C1(C)CC[C@@H](Nc2ncc3c(Br)nn(-c4cc(C)cc(CO)c4)c3n2)C1 (stereo partly drawn) [(3R)-3-[[3-bromo-1-[3-(hydroxymethyl)-5-methyl-phenyl]pyrazolo[3,4-d]pyrimidin-6-yl]amino]-N,1-dimethyl-cyclopentanecarboxamide]
3 | 25 to 200 nM |  | O=C(NCc1nnn[nH]1)[C@@H]1CC[C@@H](Nc2ncc3c(Br)nn(-c4cc(F)c5ncccc5c4)c3n2)C1 [(1R,3R)-N-((1H-tetrazol-5-yl)methyl)-3-((3-bromo-1-(8-fluoroquinolin-6-yl)-1H-pyrazolo [3,4-d]pyrimidin-6-yl)amino)cyclopentane-1-carboxamide]
4 | 25 to 200 nM |  | C[C@H]1CN(C(=O)[C@@H]2CC[C@@H](Nc3ncc4c(Br)nn(-c5ccc6ncccc6c5)c4n3)C2)C[C@H](C)N1 [((1R,3R)-3-((3-bromo-1-(quinolin-6-yl)-1H-pyrazolo[3,4-d]pyrimidin-6-yl)amino)cyclo-pentyl)((3S,5S)-3,5-dimethylpiperazin-1-yl)methanone]
5 | 25 to 200 nM |  | CNC(=O)[C@]1(C)CC[C@@H](Nc2ncc3c(Br)nn(-c4ccc(-c5nnc(C)s5)c(CC(N)C(F)(F)F)c4)c3n2)C1 (stereo partly drawn) [(1R,3R)-3-[[1-[3-(2-amino-3,3,3-trifluoro-propyl)-4-(5-methyl-1,3,4-thiadiazol-2-yl)phenyl]-3-bromo-pyrazolo[3,4-d]pyrimidin-6-yl]amino]-N,1-dimethyl-cyclopentane-carboxamide]
6 | 25 to 200 nM |  | Cc1nnc(-c2ccc(-n3nc(Br)c4cnc(N[C@@H]5CC[C@@](C)(C(=O)N6CCNC(=O)C6)C5)nc43)cc2)o1 [4-[(1R,3R)-3-[[3-bromo-1-[4-(5-methyl-1,3,4-oxadiazol-2-yl)phenyl]pyrazolo [3,4-d]pyrimidin-6-yl]amino]-1-methyl-cyclopentanecarbonyl]piperazin-2-one]
7 | < 25 nM |  | CNC(=O)[C@]1(C)CC[C@@H](Nc2ncc3c(Br)nn(-c4cc(OCC#N)c5c(c4)OCC(=O)N5C)c3n2)C1 [(1R,3R)-3-[[3-bromo-1-[5-(cyano-methoxy)-4-methyl-3-oxo-1,4-benzoxazin-7-yl]pyrazolo[3,4-d]pyrimidin-6-yl]amino]-N,1-dimethyl-cyclopentane-carboxamide]
8 | 200 to 500 nM |  | O=C([C@@H]1CC[C@@H](Nc2ncc3c(Br)nn(-c4ccc5ncccc5c4)c3n2)C1)N1CCC(O)(C(F)(F)F)CC1 [((1R,3R)-3-((3-bromo-1-(quinolin-6-yl)-1H-pyrazolo[3,4-d]pyrimidin-6-yl)amino)cyclo-pentyl)(4-hydroxy-4-(trifluoromethyl)piperidin-1-yl)methanone]
9 | < 25 nM |  | C[C@@]1(C(=O)NCC2(O)CC2)CC[C@@H](Nc2ncc3c(Br)nn(-c4cc(F)c5ncccc5c4)c3n2)C1 [(1R,3R)-3-[[3-bromo-1-(8-fluoro-6-quinolyl)pyrazolo[3,4-d]pyrimidin-6-yl]amino]-N-[(1-hydroxycyclopropyl)methyl]-1-methyl-cyclopentanecarboxamide]
10 | 25 to 200 nM |  | CNC(=O)[C@]1([C@@H](C)C#N)CC[C@@H](Nc2ncc3c(Br)nn(-c4ccc(-c5nnc(C)s5)cc4)c3n2)C1 [(1R,3R)-3-[[3-bromo-1-[4-(5-methyl-1,3,4-thiadiazol-2-yl)phenyl]pyrazolo [3,4-d]pyrimidin-6-yl]amino]-1-[(1R)-1-cyanoethyl]-N-methyl-cyclopentane-carboxamide]
11 | 25 to 200 nM |  | CNC(=O)[C@]1(C(C)C)CC[C@@H](Nc2ncc3c(Br)nn(-c4ccc(-c5nnc(C)s5)c(CCC#N)c4)c3n2)C1 [(1R,3R)-3-[[3-bromo-1-[3-(2-cyanoethyl)-4-(5-methyl-1,3,4-thiadiazol-2-yl)phenyl]pyrazolo[3,4-d]pyrimidin-6-yl]amino]-1-isopropyl-N-methyl-cyclopentane-carboxamide]
12 | 25 to 200 nM |  | CN1CCN(C(=O)[C@@H]2CC[C@@H](Nc3ncc4c(Br)nn(-c5ccc6ncccc6c5)c4n3)C2)CC1=O [4-((1R,3R)-3-((3-bromo-1-(quinolin-6-yl)-1H-pyrazolo[3,4-d]pyrimidin-6-yl)amino)cyclo-pentane-1-carbonyl)-1-methylpiperazin-2-one]
13 | 500 to 1000 nM |  | COCCNC(=O)[C@@H]1CC[C@@H](Nc2ncc3c(Br)nn(-c4ccc5nccn5c4)c3n2)C1 [(1R,3R)-3-((3-bromo-1-(imidazo[1,2-a]pyridin-6-yl)-1H-pyrazolo[3,4-d]pyrimidin-6-yl)amino)-N-(2-methoxyethyl)cyclopentane-1-carboxamide]
14 | 25 to 200 nM |  | CNC(=O)[C@]1(C)CC[C@@H](Nc2ncc3c(Br)nn(-c4ccc(-c5cncn5C)cc4)c3n2)C1 [(1R,3R)-3-[[3-bromo-1-[4-(3-methylimidazol-4-yl)phenyl]pyrazolo[3,4-d]pyrimidin-6-yl]amino]-N,1-dimethyl-cyclopentane-carboxamide]
15 | 25 to 200 nM |  | CNC(=O)[C@]1(C)CC[C@@H](Nc2ncc3c(Br)nn(-c4ccc(OCCO)c(Cl)c4)c3n2)C1 [(1R,3R)-3-[[3-bromo-1-[3-chloro-4-(2-hydroxyethoxy)phenyl]pyrazolo [3,4-d]pyrimidin-6-yl]amino]-N,1-dimethyl-cyclopentanecarboxamide]
16 | < 25 nM |  | CNC(=O)[C@]1(C)CC[C@@H](Nc2ncc3c(Br)nn(-c4ccc5c(=O)n(C)c(=O)n(C)c5c4)c3n2)C1 [(1R,3R)-3-[[3-bromo-1-(1,3-dimethyl-2,4-dioxo-quinazolin-7-yl)pyrazolo [3,4-d]pyrimidin-6-yl]amino]-N,1-dimethyl-cyclopentanecarboxamide]
17 | 25 to 200 nM |  | CNC(=O)[C@]1(C)CC[C@@H](Nc2ncc3c(Br)nn(-c4cc(F)c5c(c4)CCO5)c3n2)C1 [(1R,3R)-3-[[3-bromo-1-(7-fluoro-2,3-dihydro-benzofuran-5-yl)pyrazolo[3,4-d]pyrimidin-6-yl]amino]-N,1-dimethyl-cyclopentane-carboxamide]
18 | 25 to 200 nM |  | CNC(=O)[C@]1(C)CC[C@@H](Nc2ncc3c(Br)nn(-c4cc(C5CNCCO5)c5ncccc5c4)c3n2)C1 (stereo partly drawn) [(1R,3R)-3-[[3-bromo-1-(8-morpholin-2-yl-6-quinolyl)pyrazolo[3,4-d]pyrimidin-6-yl]amino]-N,1-dimethyl-cyclopentane-carboxamide]
19 | 25 to 200 nM |  | CNC(=O)[C@]1(C)CC[C@@H](Nc2ncc3c(Br)nn(-c4ccc(-c5nnc(C(C)(C)C)o5)cc4)c3n2)C1 [(1R,3R)-3-[[3-bromo-1-[4-(5-tert-butyl-1,3,4-oxadiazol-2-yl)phenyl]pyrazolo[3,4-d]pyrimidin-6-yl]amino]-N,1-dimethyl-cyclopentane-carboxamide]
20 | 25 to 200 nM |  | CNC(=O)[C@]1(C)CC[C@@H](Nc2ncc3c(Br)nn(-c4cc(CCN5CCOCC5)c5ncccc5c4)c3n2)C1 [(1R,3R)-3-[[3-bromo-1-[8-(2-morpholinoethyl)-6-quinolyl]pyrazolo [3,4-d]pyrimidin-6-yl]amino]-N,1-dimethyl-cyclopentanecarboxamide]
21 |  | < 25 nM | CNC(=O)[C@]1(C)CC[C@@H](Nc2ncc3c(Br)nn(-c4ccc(-c5nnc(C)s5)cc4)c3n2)C1 [Example 38, (1R,3R)-3-((3-bromo-1-(4-(5-methyl-1,3,4-thiadiazol-2-yl)phenyl)-1H-pyrazolo[3,4-d]pyrimidin-6-yl)amino)-N,1-dimethylcyclopentane-1-carboxamide]
22 | < 25 nM |  | CNC(=O)[C@]1(C)CC[C@@H](Nc2ncc3c(Br)nn(-c4cc(C#N)c5nc(C)ccc5c4)c3n2)C1 [(1R,3R)-3-[[3-bromo-1-(8-cyano-2-methyl-6-quinolyl)pyrazolo[3,4-d]pyrimidin-6-yl]amino]-N,1-dimethyl-cyclopentane-carboxamide]
23 | 200 to 500 nM |  | COCCNC(=O)[C@@H]1CC[C@@H](Nc2ncc3c(Br)nn(-c4ccc5cccnc5c4)c3n2)C1 [(1R,3R)-3-((3-bromo-1-(quinolin-7-yl)-1H-pyrazolo[3,4-d]pyrimidin-6-yl)amino)-N-(2-methoxyethyl)cyclopentane-1-carboxamide]
24 | 25 to 200 nM |  | CNC(=O)[C@]1(C)CC[C@@H](Nc2ncc3c(Br)nn(-c4cncc(C#N)c4)c3n2)C1 [(1R,3R)-3-[[3-bromo-1-(5-cyano-3-pyridyl)pyrazolo[3,4-d]pyrimidin-6-yl]amino]-N,1-dimethyl-cyclopentane-carboxamide]
25 | 25 to 200 nM |  | CNC(=O)[C@]1(C)CC[C@@H](Nc2ncc3c(Br)nn(-c4ccc5c(c4)CS(=O)(=O)C5)c3n2)C1 [(1R,3R)-3-[[3-bromo-1-(2,2-dioxo-1,3-dihydro-2-benzothiophen-5-yl)pyrazolo[3,4-d]pyrimidin-6-yl]amino]-N,1-dimethyl-cyclopentanecarboxamide]
26 | 25 to 200 nM |  | CNC(=O)[C@]1(C)CC[C@@H](Nc2ncc3c(Br)nn(-c4cc(Cl)cc(C(=O)N(C)C)c4)c3n2)C1 [3-[3-bromo-6-[[(1R,3R)-3-methyl-3-(methylcarbamoyl)cyclopentyl]amino]pyrazolo[3,4-d]pyrimidin-1-yl]-5-chloro-N,N-dimethyl-benzamide]
27 | 25 to 200 nM |  | CNC(=O)[C@]1(C)CC[C@@H](Nc2ncc3c(Br)nn(-c4cc(Cl)cc(C5CN(C)C(=O)CO5)c4)c3n2)C1 (stereo partly drawn) [(1R,3R)-3-[[3-bromo-1-[3-chloro-5-(4-methyl-5-oxo-morpholin-2-yl)phenyl]pyrazolo[3,4-d]pyrimidin-6-yl]amino]-N,1-dimethyl-cyclopentane-carboxamide]
28 | 25 to 200 nM |  | CNC(=O)[C@]1(C)CC[C@@H](Nc2ncc3c(Br)nn(-c4cc(CN5C(=O)CCC5=O)c5ncccc5c4)c3n2)C1 [(1R,3R)-3-[[3-bromo-1-[8-[(2,5-dioxo-pyrrolidin-1-yl)methyl]-6-quinolyl]pyrazolo[3,4-d]pyrimidin-6-yl]amino]-N,1-dimethyl-cyclopentanecarboxamide]

Row | SMILES | IC50 [1] | IC50 (GCN2 biochemical IC50, 4 nM GCN2, 2 μM ATP, 80 nM GFP-eIF2α, 90 min RT, read-out: GCN2 activity)
29 | CNC(=O)[C@]1(C)CC[C@@H](Nc2ncc3c(Br)nn(-c4cc(Cl)cc([C@@H](C)N)c4)c3n2)C1 | < 25 nM | 
